According to patent publication US20170189418A1, “PHARMACEUTICAL COMPOSITION FOR TREATING LUNG CANCER” (MA SHEN KAI RUEI CO., LTD., priority 2015, published 2017):

Tests used:
Type in all cases: cell-based
Conditions in all cases: isolated compound
A549 cells = experiment: MTT survival assay, human lung cancer cell line A549
Method: (§1) The Anctin K(AnK) and dehydroeburicoic acid (DeHBA) separately isolated from the Extraction A of Example 1 were added into the culture media of human lung-cancer cells, A549, CH27 or H460, to test for tumor cell survival by using anti-cancer drug screen model. This survival assay was carried out with the widely known MTT (3-[4,5-dimethylthiazol-2-yl]2,5-diphenyltetrazolium bromide) assay.
(§2) Lung cancer cell lines, A549 cells are adenocarcinomic human alveolar basal epithelial cells. A549 cell line are widely used as an in vitro model for a type II pulmonary epithelial cell model for drug metabolism and as a transfection host, while CH27 is human lung squamous carcinoma cell and H460 is human lung non-small cell carcinoma cell. The human lung-cancer cells, A549, CH27 and H460 were cultivated in media containing fetal calf serum for 10 hours. The proliferated cells were washed once with PBS, then treated with 1× trypsin-EDTA and centrifuged at 2000 rpm for 10 minutes. The supernatant was discarded and the cell pellet was re-suspended in […] of fresh culture medium by gently shaking. The cells were placed in a 96-well plate.
(§3) Subsequently, the plates were read on an ELISA reader to determine the survival rates. The half maximal inhibitory concentration (IC50) values were calculated and results of ex vivo survival assay were thus obtained.
(§4) By using the same manner as the method described above, respectively human lung cancer cell line A549, CH27 and H460 was cultured. After then, the pharmaceutical compositions A-F of the present invention was applied separately, and then MTT assay for each sample was measured to assess the inhibition effectiveness of various cancer cell activity while using pharmaceutical compositions A-F of the present invention.

CH27 cells = experiment: MTT survival assay, human lung cancer cell line CH27
Method: as §1, §2, §3, §4

H460 cells = experiment: MTT survival assay, human lung cancer cell line H460
Method: as §1, §2, §3, §4

Structure (SMILES)	half-maximal inhibitory concentration (IC50) (A549 cells)	survival rate of lung cancer cell (A549 cells)	half-maximal inhibitory concentration (IC50) (CH27 cells)	survival rate of lung cancer cell (CH27 cells)	half-maximal inhibitory concentration (IC50) (H460 cells)	survival rate of lung cancer cell (H460 cells)
C=C(CC[C@@H](C(=O)O)[C@H]1CC[C@@]2(C)C3=CC[C@H]4C(C)(C)[C@@H](O)CC[C@]4(C)C3=CC[C@]12C)C(C)C [dehydroeburicoic acid]	relatively low	decreasing the survival rate	relatively low	decreasing the survival rate	relatively low	decreasing the survival rate
C=C(CC[C@@H](C)[C@H]1CC[C@H]2C3=C(C(=O)C[C@]12C)[C@@]1(C)CC[C@@H](O)[C@](C)(O)C1C[C@@H]3O)C(C)C(=O)O (stereo partly drawn) [Anctin K]	relatively low	decreasing the survival rate	relatively low	decreasing the survival rate	relatively low	decreasing the survival rate
